Data as given in PubChem BioAssay AID330 (DTP/NCI, 2004).
Values joined by “and” are separate entries in the source; they are usually repeats but may differ in a detail not shown here. Equal entries are not always repeated. Toxic doses and inconclusive results are not listed.

Tested on: P388 leukemia ip, CD2F1 mice, survival T/C
Assay: NCI In Vivo Anticancer Drug Screen. Data for tumor model P388 Leukemia (intraperitoneal) in CD2F1 (CDF1) mice
Conditions: endpoint: median survival time, higher = longer survival
Outline: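 Mice carrying the transplanted tumor received test compound or vehicle. Survival was recorded in each group, and the value is the treated-group measurement divided by that of the vehicle-treated control group.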

[1] = dose: 60.0 mg/kg/injection, schedule: Q01DX005 (ip), vehicle: saline with Tween-80
[2] = dose: 120.0 mg/kg/injection, schedule: Q01DX005 (ip), vehicle: saline with Tween-80
[3] = dose: 240.0 mg/kg/injection, schedule: Q01DX005 (ip), vehicle: saline with Tween-80
[4] = dose: 50.0 mg/kg/injection, schedule: Q01DX001 (ip), vehicle: saline
[5] = dose: 50.0 mg/kg/injection, schedule: Q01DX009 (ip), vehicle: saline with Tween-80
[6] = dose: 100.0 mg/kg/injection, schedule: Q01DX009 (ip), vehicle: saline with Tween-80
[7] = dose: 200.0 mg/kg/injection, schedule: Q01DX009 (ip), vehicle: saline with Tween-80
[8] = dose: 100.0 mg/kg/injection, schedule: Q01DX001 (ip), vehicle: Klucel (hydroxypropylcellulose) (HPC)
[9] = dose: 1.5 mg/kg/injection, schedule: Q01DX005 (ip), vehicle: saline with Tween-80
[10] = dose: 200.0 mg/kg/injection, schedule: Q01DX005 (ip), vehicle: saline with Tween-80

C=C(CBr)CCCCC
T/C [1]: 104 % of control
T/C [2]: 105 % of control
T/C [3]: 117 % of control

COc1ccccc1C1=[N+]([O-])C(C)(C)C(c2ccccc2)C1 (centres undefined)
T/C (dose: 100.0 mg/kg/injection, schedule: Q04DX002 (ip), vehicle: Klucel (hydroxypropylcellulose) (HPC)): 104 % of control
T/C (dose: 200.0 mg/kg/injection, schedule: Q04DX002 (ip), vehicle: Klucel (hydroxypropylcellulose) (HPC)): 102 % of control

CC(C)c1cc2c(cc1O)C(O)C1(O)CCCC(C)(C)[C@H]1CC2 (some centres undefined)
T/C (dose: 7.5 mg/kg/injection, schedule: Q01DX005 (ip), vehicle: other): 104 % of control
T/C (dose: 15.0 mg/kg/injection, schedule: Q01DX005 (ip), vehicle: other): 100 % of control
T/C (dose: 30.0 mg/kg/injection, schedule: Q01DX005 (ip), vehicle: other): 86 % of control
T/C (dose: 60.0 mg/kg/injection, schedule: Q01DX005 (ip), vehicle: other): 94 % of control

OCc1nccn1Cc1ccccc1
T/C [4]: 115 % of control
T/C (dose: 100.0 mg/kg/injection, schedule: Q01DX001 (ip), vehicle: saline): 95 % of control

COC(=O)CCN1CCCC1CC(O)/C=C/c1ccccc1 (centres undefined)
T/C (dose: 100.0 mg/kg/injection, schedule: Q01DX001 (ip), vehicle: saline with Tween-80): 93 % of control
T/C (dose: 200.0 mg/kg/injection, schedule: Q01DX001 (ip), vehicle: saline with Tween-80): 100 % of control
T/C (dose: 400.0 mg/kg/injection, schedule: Q01DX001 (ip), vehicle: saline with Tween-80): 106 % of control

CC1(C)OC(=O)C(=Cc2ccc([N+](=O)[O-])s2)C(=O)O1
T/C [5]: 103 % of control and 110 % of control
T/C [6]: 109 % of control and 122 % of control
T/C [7]: 111 % of control and 124 % of control

COc1cc2cc[n+](C)c(Cc3ccc(Oc4cc(Cc5c6cc(OC)c(OC)cc6cc[n+]5C)ccc4OC)cc3)c2cc1OC
T/C (dose: 2.5 mg/kg/injection, schedule: Q01DX009 (ip), vehicle: saline): 98 % of control
T/C (dose: 5.0 mg/kg/injection, schedule: Q01DX009 (ip), vehicle: saline): 99 % of control
T/C (dose: 10.0 mg/kg/injection, schedule: Q01DX009 (ip), vehicle: saline): 88 % of control

CN(C)c1ccc(C(=C2C=CC(=[N+](C)c3ccccc3)c3ccccc32)c2ccc(N(C)C)cc2)cc1
T/C (dose: 1.56 mg/kg/injection, schedule: Q01DX005 (ip), vehicle: saline with Tween-80): 116 % of control

NC(=S)Nc1ccccc1
T/C (dose: 2.5 mg/kg/injection, schedule: Q01DX009 (ip), vehicle: saline with Tween-80): 100 % of control
T/C (dose: 2.5 mg/kg/injection, schedule: Q04DX003 (ip), vehicle: saline sonified): 100 % of control
T/C (dose: 5.0 mg/kg/injection, schedule: Q01DX009 (ip), vehicle: saline with Tween-80): 100 % of control
T/C (dose: 5.0 mg/kg/injection, schedule: Q04DX003 (ip), vehicle: saline sonified): 104 % of control
T/C (dose: 10.0 mg/kg/injection, schedule: Q01DX009 (ip), vehicle: saline with Tween-80): 100 % of control
T/C (dose: 10.0 mg/kg/injection, schedule: Q04DX003 (ip), vehicle: saline sonified): 95 % of control

Cc1c2c(n(C)c1C)C(=O)C=CC2=O
T/C (dose: 50.0 mg/kg/injection, schedule: Q01DX001 (ip), vehicle: Klucel (hydroxypropylcellulose) (HPC)): 100 % of control
T/C [8]: 113 % of control

COC(=O)c1cc(O)c2c(c1C(=O)OC)C[C@H]1[C@@H]3CCC4=CC(=O)CC[C@]4(C)[C@H]3CC[C@]21C
T/C [9]: 93 % of control
T/C (dose: 3.0 mg/kg/injection, schedule: Q01DX005 (ip), vehicle: saline with Tween-80): 91 % of control
T/C (dose: 6.25 mg/kg/injection, schedule: Q01DX005 (ip), vehicle: saline with Tween-80): 92 % of control
T/C [10]: 86 % of control

O=C(NC(c1ccccc1)N1CCOCC1)c1ccccc1 (centres undefined)
T/C (dose: 50.0 mg/kg/injection, schedule: Q01DX005 (ip), vehicle: Klucel + Tween-80): 108 % of control
T/C (dose: 100.0 mg/kg/injection, schedule: Q01DX005 (ip), vehicle: Klucel + Tween-80): 112 % of control
T/C (dose: 200.0 mg/kg/injection, schedule: Q01DX005 (ip), vehicle: Klucel + Tween-80): 114 % of control

Nc1ncnc2c1ncn2C1OC(CO)C(O)C1N (centres undefined)
T/C (dose: 50.0 mg/kg/injection, schedule: Q04DX002 (ip), vehicle: saline): 106 % of control
T/C (dose: 100.0 mg/kg/injection, schedule: Q04DX002 (ip), vehicle: saline): 110 % of control
T/C (dose: 200.0 mg/kg/injection, schedule: Q04DX002 (ip), vehicle: saline): 112 % of control

NC(=S)N/N=C/c1nccc2ccccc12
T/C (dose: 9.4 mg/kg/injection, schedule: Q01DX009 (ip), vehicle: saline with Tween-80): 153 % of control
T/C (dose: 37.5 mg/kg/injection, schedule: Q01DX009 (ip), vehicle: saline): 150 % of control
T/C (dose: 75.0 mg/kg/injection, schedule: Q01DX009 (ip), vehicle: saline): 150 % of control
T/C [6]: 152 % of control
T/C [7]: 98 % of control

Nc1nc(-c2cc(Cl)cc(Cl)c2)cc(-c2cc(-c3cc(Cl)cc(Cl)c3)nc(N)n2)n1
T/C [1]: 100 % of control
T/C [2]: 106 % of control
T/C [3]: 96 % of control

O=S(=O)(Nc1ccc(O)c(Cl)c1)c1ccccc1
T/C (dose: 100.0 mg/kg/injection, schedule: Q04DX003 (ip), vehicle: saline with Tween-80): 100 % of control
T/C (dose: 200.0 mg/kg/injection, schedule: Q04DX003 (ip), vehicle: saline with Tween-80): 100 % of control
T/C (dose: 400.0 mg/kg/injection, schedule: Q04DX003 (ip), vehicle: saline with Tween-80): 100 % of control

C#CCC(B1OCCO1)B1OCCO1
T/C (dose: 25.0 mg/kg/injection, schedule: Q01DX001 (ip), vehicle: saline): 100 % of control
T/C [4]: 90 % of control

COC(=O)C(CCSC)NC(=O)C(Cc1c[nH]c2ccccc12)NC(=O)OC(C)(C)C (centres undefined)
T/C (dose: 50.0 mg/kg/injection, schedule: Q01DX009 (ip), vehicle: Klucel (hydroxypropylcellulose) (HPC)): 86 % of control
T/C (dose: 100.0 mg/kg/injection, schedule: Q01DX009 (ip), vehicle: Klucel (hydroxypropylcellulose) (HPC)): 97 % of control
T/C (dose: 200.0 mg/kg/injection, schedule: Q01DX009 (ip), vehicle: Klucel (hydroxypropylcellulose) (HPC)): 106 % of control

c1ccc2c(NCCCCCNc3c4ccccc4nc4ccccc34)c3ccccc3nc2c1
T/C (dose: 0.63 mg/kg/injection, schedule: Q01DX009 (ip), vehicle: other): 103 % of control
T/C (dose: 1.25 mg/kg/injection, schedule: Q01DX009 (ip), vehicle: other): 108 % of control
T/C (dose: 2.5 mg/kg/injection, schedule: Q01DX009 (ip), vehicle: other): 100 % of control
T/C (dose: 3.75 mg/kg/injection, schedule: Q01DX009 (ip), vehicle: other): 112 % of control
T/C (dose: 5.0 mg/kg/injection, schedule: Q01DX009 (ip), vehicle: other): 117 % of control
T/C (dose: 10.0 mg/kg/injection, schedule: Q01DX009 (ip), vehicle: other): 122 % of control

CSC(=S)N/N=C(/C)CC(C)C
T/C (dose: 12.5 mg/kg/injection, schedule: Q01DX009 (ip), vehicle: saline with Tween-80): 105 % of control
T/C (dose: 25.0 mg/kg/injection, schedule: Q01DX009 (ip), vehicle: saline with Tween-80): 120 % of control
T/C [5]: 100 % of control

Oc1ccc2ccccc2c1/C=N/NC(=S)N/N=C/c1c(O)ccc2ccccc12
T/C (dose: 0.38 mg/kg/injection, schedule: Q01DX005 (ip), vehicle: saline with Tween-80): 97 % of control
T/C (dose: 0.75 mg/kg/injection, schedule: Q01DX005 (ip), vehicle: saline with Tween-80): 97 % of control
T/C [9]: 90 % of control and 92 % of control
T/C (dose: 6.0 mg/kg/injection, schedule: Q01DX005 (ip), vehicle: saline with Tween-80): 86 % of control
T/C (dose: 100.0 mg/kg/injection, schedule: Q01DX005 (ip), vehicle: saline with Tween-80): 96 % of control
T/C [10]: 116 % of control

C[S+](C)CCC[S+](C)C
T/C (dose: 50.0 mg/kg/injection, schedule: Q01DX009 (ip), vehicle: saline): 105 % of control
T/C (dose: 100.0 mg/kg/injection, schedule: Q01DX009 (ip), vehicle: saline): 99 % of control
T/C (dose: 200.0 mg/kg/injection, schedule: Q01DX009 (ip), vehicle: saline): 105 % of control

NC(=O)NN(Cc1ccc(Br)cc1)N=O
T/C [8]: 96 % of control
T/C (dose: 200.0 mg/kg/injection, schedule: Q01DX001 (ip), vehicle: Klucel (hydroxypropylcellulose) (HPC)): 97 % of control
T/C (dose: 400.0 mg/kg/injection, schedule: Q01DX001 (ip), vehicle: Klucel (hydroxypropylcellulose) (HPC)): 97 % of control

CC(C)NC(=O)CN1C(=O)NC(C)(c2ccccc2)C1=O (centres undefined)
T/C [1]: 101 % of control
T/C [2]: 95 % of control
T/C [3]: 94 % of control
